Converted amounts (≈) assume the structure as drawn. Where two headings read alike, the source gives them in different places.
How the values were obtained:
[1] = system: murine P388 lymphocytic leukemia cell line; experiment: Cancer cell growth inhibition, murine P388 lymphocytic leukemia cell line; format: cell-based; conditions: Mus musculus
Procedure, shortened: (§1)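 Growth inhibition in murine P388 leukemia and human cancer cell line panels (Arizona State University minipanel and NCI 60-cell screen).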

lung NCI-H460 = experiment: Cancer cell growth inhibition, lung NCI-H460; format: cell-based, human; conditions: Homo sapiens, lung NCI-H460
Procedure, shortened: as §1

colon KM 20L2 = experiment: Cancer cell growth inhibition, colon KM 20L2; format: cell-based, human; conditions: Homo sapiens, colon KM 20L2
Procedure, shortened: as §1

pancreas BXPC-3 = experiment: Cancer cell growth inhibition, pancreas BXPC-3; format: cell-based, human; conditions: Homo sapiens, pancreas BXPC-3
Procedure: (§2) Biology The cancer cell growth inhibitory properties were examined using the murine P388 lymphocytic leukemia cell line and a selection of human cancer cell lines.
(§3) All of the synthetic products were evaluated against a minipanel of human cancer cell lines, the murine P388 lymphocytic leukemia cell line and a selection of microorganisms.

breast MCF-7 = experiment: Cancer cell growth inhibition, breast MCF-7; format: cell-based, human; conditions: Homo sapiens, MCF7, breast MCF-7
Procedure: as §2, §3

CNS SF-268 = experiment: Cancer cell growth inhibition, CNS SF-268; format: cell-based, human; conditions: Homo sapiens, CNS SF-268
Procedure: as §2, §3

prostrate DU-145 = experiment: Cancer cell growth inhibition, prostate DU-145; format: cell-based, human; conditions: Homo sapiens
Procedure: as §2, §3

Cryptococcus neoformans = experiment: Broth microdilution susceptibility assay, Cryptococcus neoformans; format: cell-based; conditions: for MIC: Table 4, read-out: Range of minimum inhibitory concentration
Candida albicans = experiment: Broth microdilution susceptibility assay, Candida albicans; format: cell-based; conditions: for MIC: Table 4, read-out: Range of minimum inhibitory concentration
Staphylococcus aureus = experiment: Broth microdilution susceptibility assay, Staphylococcus aureus; format: cell-based; conditions: for MIC: Table 4, read-out: Range of minimum inhibitory concentration
Streptococcus pneumoniae = experiment: Broth microdilution susceptibility assay, Streptococcus pneumoniae; format: cell-based; conditions: for MIC: Table 4, read-out: Range of minimum inhibitory concentration
Enterococcus faecalis = experiment: Broth microdilution susceptibility assay, Enterococcus faecalis; format: cell-based; conditions: for MIC: Table 4, read-out: Range of minimum inhibitory concentration
Micrococcus luteus = experiment: Broth microdilution susceptibility assay, Micrococcus luteus; format: cell-based; conditions: for MIC: Table 4, read-out: Range of minimum inhibitory concentration
Escherichia coli = experiment: Broth microdilution susceptibility assay, Escherichia coli; format: cell-based; conditions: for MIC: Table 4, read-out: Range of minimum inhibitory concentration
Enterobacter cloacae = experiment: Broth microdilution susceptibility assay, Enterobacter cloacae; format: cell-based; conditions: for MIC: Table 4, read-out: Range of minimum inhibitory concentration
[2] = system: Stenotrophomonas maltophilia; experiment: Broth microdilution susceptibility assay, Stenotrophomonas maltophilia; format: cell-based; conditions: for MIC: Table 4, Stenotrophomonas maltophil, read-out: Range of minimum inhibitory concentration
Neisseria gonorrhoeae = experiment: Broth microdilution susceptibility assay, Neisseria gonorrhoeae; format: cell-based; conditions: for MIC: Table 4, read-out: Range of minimum inhibitory concentration
PKC alpha [3] = biological target: T1, PKC alpha (Homo sapiens, UniProt P17252); experiment: Inhibition of PKC catalytic activity (peptide substrate phosphorylation); format: biochemical; conditions: for inhibition at 30 µM: read-out: percent inhibition of PKC catalytic activity
Description: We further evaluated the ability of the derivatives to inhibit PKC catalytic activity. […] Inhibition by 10c was 19.5±7.6% and inhibition by 4, 5, and 9a, b, c was 6% or less (all values are mean±SEM, three experiments). […] In both cases, the inhibition curves were steeper than predicted for a competitive inhibitor, consistent with a complicated mechanism of action (Hill coefficients for 10a and 10b of 1.5±0.1 and 2.0±0.5, respectively).

[4] = system: herpes simplex virus type 1 (HSV-1); conditions: cited from earlier work
Vero cells = conditions: cited from earlier work
[5] = system: murine P388 lymphocytic leukemia cell line and a selection of human cancer cell lines; experiment: Cancer cell growth inhibition, P388 and human cancer cell line panel (summary in words); format: cell-based
Description: as §2

[6] = system: Mycobacterium tuberculosis H37Rv; experiment: Microplate Alamar Blue Assay, Mycobacterium tuberculosis; format: cell-based; conditions: 6.25 μg/ml
PKC alpha [7] = biological target: T1, PKC alpha; experiment: Inhibition of [3H]phorbol 12,13-dibutyrate binding to PKC alpha; conditions: read-out: inhibition of [3H]phorbol 12,13-dibutyrate binding to PKC alpha
Procedure, shortened: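 Compounds tested at a single 30 μM concentration for displacement of [3H]phorbol 12,13-dibutyrate binding to PKC alpha, reported as percent inhibition. Triplicate measurements in one or three independent experiments depending on compound.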

[8] = system: THP-1 human monocytic leukemia cells; experiment: Flow cytometry cell cycle analysis of THP-1 cells; format: cell-based; conditions: THP-1 cells pretreated for 24 hours with 0.25 μg/ml
[9] = system: genes whose products are involved in DNA synthesis; experiment: cDNA microarray assay with THP-1 cells; format: cell-based, human; conditions: THP-1 cells treated for 23 hours with 0.25 μg/ml
[10] = P388, Table 3, leukemia P-388, read-out: Cancer cell growth inhibitory ED50
[11] = Table 5, leukemia P388, read-out: Cancer Cell Line Results ED50
[12] = Table 3, read-out: Cancer cell growth inhibitory ED50
[13] = Table 5, read-out: Cancer Cell Line Results ED50
[14] = DU-145, Table 5, prostate DRU-145, read-out: Cancer Cell Line Results ED50
[15] = Table 3, prostrate DU-145, read-out: Cancer cell growth inhibitory ED50

SMILES	IC50 [1, 10] [µg/mL]	IC50 [1, 11] [µg/mL]	IC50 (lung NCI-H460; [12]) [µg/mL]	IC50 (lung NCI-H460; [13]) [µg/mL]	IC50 (colon KM 20L2; [12]) [µg/mL]	IC50 (colon KM 20L2; [13]) [µg/mL]	IC50 (pancreas BXPC-3; [12]) [µg/mL]	IC50 (pancreas BXPC-3; [13]) [µg/mL]	IC50 (breast MCF-7; [12]) [µg/mL]	IC50 (breast MCF-7; [13]) [µg/mL]	IC50 (CNS SF-268; [12]) [µg/mL]	IC50 (CNS SF-268; [13]) [µg/mL]	IC50 (prostrate DU-145; [14]) [µg/mL]	IC50 (prostrate DU-145; [15]) [µg/mL]	MIC (Cryptococcus neoformans) [µg/mL]	MIC (Candida albicans) [µg/mL]	MIC (Staphylococcus aureus) [µg/mL]	MIC (Streptococcus pneumoniae) [µg/mL]	MIC (Enterococcus faecalis) [µg/mL]	MIC (Micrococcus luteus) [µg/mL]	other results
COc1cc2c3c(ccnc3c1OC)N(C)C=C2 [Compound 4, 4-Methylaaptamine]	> 10	> 10	> 10	> 10	> 10	> 10	> 10	> 10	> 10	> 10	> 10	> 10	> 10	> 10	> 64	> 64	> 64	> 64	> 64	> 64	MIC (Escherichia coli): > 64 µg/mL; MIC (Enterobacter cloacae): > 64 µg/mL; MIC [2]: > 64 µg/mL; MIC (Neisseria gonorrhoeae): > 64 µg/mL; inhibition at 30 µM (PKC alpha [3]; 30 μM compound, 1 μM phorbol 12-myristate 13-acetate, 100 μg/ml phospholipid, mean±SEM, three experiments): ≤ 6%; antiviral activity against HSV-1 [4]: potent antiviral activity; toxicity to Vero cells (Vero cells): low toxicity
CN1C=Cc2cc(O)c(O)c3nccc1c23 [Compound 7, 4-Methyl-8,9-dihydroxy-4H-benzo[de][1,6]naphthyridine]	2.2 (≈ 10.3 µM)	–	> 10	–	> 10	–	> 10	–	4.1 (≈ 19.1 µM)	–	5.6 (≈ 26.1 µM)	–	–	> 10	> 64	> 64	> 64	> 64	> 64	> 64	MIC (Escherichia coli): > 64 µg/mL; MIC (Enterobacter cloacae): > 64 µg/mL; MIC [2]: > 64 µg/mL; MIC (Neisseria gonorrhoeae): 64 µg/mL (≈ 299 µM); cancer cell growth inhibitory activity [5]: marginal activity
COc1cc2c3c(cc[n+](Cc4ccccc4)c3c1OC)N(Cc1ccccc1)C=C2.[Cl-] [Compound 10a, 1,4-Bis-(benzyl)-8,9-dimethoxy-4H-benzo[de][1,6]naphthyridin-1-ium chloride]	–	0.234	–	0.26	–	0.055	–	0.061	–	0.27	–	0.064	0.036	–	–	–	–	–	–	–	Range of minimum inhibitory concentration (Cryptococcus neoformans; Table 6): * (no inhibition at 64 μg/mL); Range of minimum inhibitory concentration (Candida albicans; Table 6): * (no inhibition at 64 μg/mL); Range of minimum inhibitory concentration (Staphylococcus aureus; Table 6): * (no inhibition at 64 μg/mL); Range of minimum inhibitory concentration (Streptococcus pneumoniae; Table 6): 32 µg/mL; Range of minimum inhibitory concentration (Enterococcus faecalis; Table 6): 32 µg/mL; Range of minimum inhibitory concentration (Micrococcus luteus; Table 6): 0.5 to 2 µg/mL; Range of minimum inhibitory concentration (Escherichia coli; Table 6): 8 µg/mL; Range of minimum inhibitory concentration (Enterobacter cloacae; Table 6): * (no inhibition at 64 μg/mL); Range of minimum inhibitory concentration ([2]; Table 6): * (no inhibition at 64 μg/mL); Range of minimum inhibitory concentration (Neisseria gonorrhoeae; Table 6): 0.25 µg/mL; inhibition at 6.25 µg/mL [6]: 98%; inhibition at 30 µM (PKC alpha [7]): 11.8%; Hill coefficient of PKC inhibition curve (PKC alpha [3]): 1.5±0.1; IC50 (PKC alpha [3]): 20.8 ± 2.5 µM; inhibition at 30 µM (PKC alpha [3]): 71.1 ± 4.5%; cell cycle effect (propidium iodide flow cytometry) [8]: accumulation of cells in the GI phase; down-regulation of several genes involved in DNA synthesis [9]: 5- to 7 fold; melting point: 175 °C (dec.)
